According to patent US12679837B2, “Aminopyrimidine compound as CDK2/4/6 triple inhibitor” (CISEN PHARMACEUTICAL CO., LTD, priority 2019, dated 2026):

Legend:
[1] = tested on: HCT116 cells; assay: HCT116 cell activity test (CellTiter-Glo); assay type: cell-based; conditions: Homo sapiens, HCT-116, 96 h, 4 days, read-out: Antiproliferative activity (IC50) HCT 116
Method: (§1) Experimental materials: McCoy' 5a medium, fetal bovine serum, and penicillin/streptomycin antibiotics were purchased from Vicente. CellTiter-Glo (chemiluminescence detection reagent for cell viability) reagent was purchased from Promega. The HCT116 cell line was purchased from Cobioer Biosciences Co., Ltd. Nivo Multilabel Analyzer (PerkinElmer).
Experimental method: HCT116 cells were seeded in a white 96-well plate, 80 μL of cell suspension per well, which contained 1000 HCT116 cells. The cell plate was incubated overnight in a carbon dioxide incubator. The compounds to be tested were diluted 5-fold to the 9th concentration with a row gun, that is, from 2 mM to 5.12 nM, and a double-replicate well experiment was set up. 78 μL of medium was added to the middle plate, and then transferred 2 μL per well of the gradient diluted compound to the middle plate according to the corresponding position, mixed well and transferred 20 μL per well to the cell plate. […] Another cell plate was prepared, and the signal value was read as the maximum value (Max value in the equation below) on the day of drug addition to participate in data analysis. 25 μL of chemiluminescence detection reagent for cell viability was added to each well of the cell plate, and incubated at room temperature for 10 minutes to stabilize the luminescence signal. A multi-label analyzer was used for reading. […]

[2] = tested on: MDA-MB-468 cells; assay: MDA-MB-468 cell activity test (CellTiter-Glo); assay type: cell-based
Method: as §1, with “L15” for “McCoy' 5a”, “serum,” for “serum, and”, “MDA-MB-468” for “HCT116”
Experimental method: MDA-MB-468 cells were seeded in a white 96-well plate, 80 μL of cell suspension per well, which contained 1000 MDA-MB-468 cells. The cell plate was incubated overnight in a carbon dioxide incubator. The compounds to be tested were diluted 5-fold to the 9th concentration with a row gun, that is, from 10 mM to 25.6 nM, and a double-replicate well experiment was set up. 78 μL of medium was added to the middle plate, and then transferred 2 μL per well of the gradient diluted compound to the middle plate according to the corresponding position, mixed well and transferred 20 μL per well to the cell plate. The concentration of compound transferred to the cell plate ranged from 50 μM to 0.128 nM. The cell plate was incubated in a carbon dioxide incubator for 7 days. Another cell plate was prepared, and the signal value was read as the maximum value (Max value in the equation below) on the day of drug addition to participate in data analysis. 25 μL of chemiluminescence detection reagent for cell viability was added to each well of the cell plate, and incubated at room temperature for 10 minutes to stabilize the luminescence signal. A multi-label analyzer was used for reading.
(§2) Data analysis: Using the equation (Sample−Min)/(Max−Min)×100% to convert the original data into inhibition rate, the IC50 value can be obtained by curve fitting with four parameters (obtained by the mode of log(inhibitor) vs. response—Variable slope in GraphPad Prism).

[3] = target: T1, CDK9/CyclinT1 (Homo sapiens, UniProt P50750); assay: CDK9/CyclinT1 kinase activity assay (ADP-Glo); assay type: biochemical; conditions: 100 μM ATP, 25° C., 60 minutes; read-out: Enzyme activity data (IC50) CDK9/CyclinT1
T1 construct: purchased Carna
Method: Experimental materials: CDK9/CyclinT1 kinase was purchased from Carna, the ADP-Glo detection kit was purchased from Promega, the PKDTide substrate and kinase reaction buffer were purchased from Signalchem. Nivo Multilabel Analyzer (PerkinElmer).
(§3) Experimental method: Kinase buffer dilution enzyme in the kit, substrate, adenosine triphosphate and inhibitor were used. […] The reaction system was placed at 25° C. and reacted for 60 minutes. After the reaction was complete, 5 μL of ADP-Glo reagent was added to each well, and the reaction was continued at 25° C. for 40 minutes. At the end of the reaction, 10 μL of kinase detection reagent was added to each well. After the reaction was continued at 25° C. for 30 minutes, the chemiluminescence was read by a multi-label analyzer with an integration time of 0.5 seconds.
Table 1 provides the enzymatic inhibitory activities of the compounds of the present invention on CDK2/CyclinA2, CDK2/CyclinE1, CDK4/CyclinD1, CDK6/CyclinD1, CDK9/CyclinT1.

[4] = target: T2, CDK2/CyclinE1 (Homo sapiens, UniProt P24941); assay: CDK2/CyclinE1 kinase activity test (ADP-Glo); assay type: biochemical; conditions: 150 μM ATP, 25° C., 60 minutes; read-out: Enzyme activity data (IC50) CDK2/CyclinE1
T2 construct: purchased Promega
Method: Nivo Multilabel Analyzer (PerkinElmer).
as §3, with “used. The compounds to be tested were diluted 5-fold to the 8th concentration with a row gun, that is, from 50 μM to 0.65 nM, the concentration of DMSO was 5%, and a double-replicate well experiment was set up.” for “used.”
as §2, with “Using” for “Data analysis: Using”, “Prism). Table 1 provides the enzymatic inhibitory activities of the compounds of the present invention on CDK2/CyclinA2, CDK2/CyclinE1, CDK4/CyclinD1, CDK6/CyclinD1, CDK9/CyclinT1.” for “Prism).”

T1 sequence (P50750 whole entry): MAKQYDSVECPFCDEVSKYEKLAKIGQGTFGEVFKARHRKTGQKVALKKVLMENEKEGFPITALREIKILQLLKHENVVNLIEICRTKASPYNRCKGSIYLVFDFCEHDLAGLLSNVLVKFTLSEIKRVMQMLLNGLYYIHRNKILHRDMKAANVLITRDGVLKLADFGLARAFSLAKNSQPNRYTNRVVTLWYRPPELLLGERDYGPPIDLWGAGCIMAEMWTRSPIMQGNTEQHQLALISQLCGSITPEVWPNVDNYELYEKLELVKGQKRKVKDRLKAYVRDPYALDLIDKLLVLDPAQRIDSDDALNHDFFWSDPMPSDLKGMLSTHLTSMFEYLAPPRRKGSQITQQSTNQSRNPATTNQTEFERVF
T1 sequence (O60563 whole entry partner): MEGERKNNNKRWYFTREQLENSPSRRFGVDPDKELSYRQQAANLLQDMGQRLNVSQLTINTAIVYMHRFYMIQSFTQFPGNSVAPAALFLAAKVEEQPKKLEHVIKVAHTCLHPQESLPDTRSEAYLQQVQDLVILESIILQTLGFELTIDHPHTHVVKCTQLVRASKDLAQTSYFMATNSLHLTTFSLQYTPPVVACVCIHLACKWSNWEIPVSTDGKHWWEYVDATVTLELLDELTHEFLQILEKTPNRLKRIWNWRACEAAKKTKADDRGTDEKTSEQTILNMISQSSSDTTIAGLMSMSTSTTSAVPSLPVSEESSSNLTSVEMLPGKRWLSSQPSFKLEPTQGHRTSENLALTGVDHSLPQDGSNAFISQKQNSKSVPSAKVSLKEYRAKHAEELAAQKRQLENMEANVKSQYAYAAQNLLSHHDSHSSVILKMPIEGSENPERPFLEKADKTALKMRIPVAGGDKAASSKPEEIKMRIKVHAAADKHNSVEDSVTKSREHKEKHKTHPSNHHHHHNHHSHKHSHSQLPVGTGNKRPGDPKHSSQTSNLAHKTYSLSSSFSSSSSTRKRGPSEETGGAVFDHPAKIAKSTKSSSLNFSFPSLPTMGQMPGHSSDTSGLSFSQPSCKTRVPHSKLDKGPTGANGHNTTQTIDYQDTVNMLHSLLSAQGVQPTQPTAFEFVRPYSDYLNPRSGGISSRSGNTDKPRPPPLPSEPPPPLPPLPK

IC50 [1]: 70 nM
IC50 ([2]; Homo sapiens, 168 h, MDA-MB-468 cells (Rb-negative), 7 days, read-out: Antiproliferative activity (IC50) MDA-MB-468): 640 nM
IC50 [3]: 110 nM
IC50 [4]: 1.19 nM
Structure (SMILES): C[C@@]1(O)CCC[C@H]1N1C(=O)CCc2cnc(NC3CCN(S(C)(=O)=O)CC3)nc21 [Compound 1A]
Selectivity ratio(MDA-MB-468/HCC1806) ([2]; ratio of antiproliferative IC50, MDA-MB-468/HCC1806): 4.1
